In ChEMBL document CHEMBL1129680, “Discovery of novel, non-peptide HIV-1 protease inhibitors by pharmacophore searching” (J Med Chem, 1996):
The source made the active and inactive calls. The rule behind the calls is not given here.

Assays:
[1] = target: Human immunodeficiency virus type 1 protease (Human immunodeficiency virus 1) (UniProt Q72874); test: Evaluated for the inhibition of HIV-1 Protease.
[2] = target: Human immunodeficiency virus type 1 reverse transcriptase (Human immunodeficiency virus 1) (UniProt Q72547); test: Inhibitory concentration against Reverse Transcriptase
Homo sapiens [3] = species: Homo sapiens; test: Antiviral activity against HIV virus induced infection in human PBLs cells; type: functional, cell-based
[4] = Inhibition of compound against p7 nucleocapsid fluorescence intensity of the zinc finger ); NI = No inhibition; type: functional
[5] = target: Human immunodeficiency virus type 1 protease (Human immunodeficiency virus 1) (UniProt Q72874)
[6] = target: Human immunodeficiency virus type 1 protease (Human immunodeficiency virus 1) (UniProt Q72874); remark: listed apart in the source
[7] = target: Human immunodeficiency virus type 1 integrase (Human immunodeficiency virus 1) (UniProt Q7ZJM1); test: Inhibitory concentration against HIV-1 Integrase 3' chain processing
Sequence of Human immunodeficiency virus type 1 integrase (Human immunodeficiency virus 1) (Q7ZJM1 as listed by the source): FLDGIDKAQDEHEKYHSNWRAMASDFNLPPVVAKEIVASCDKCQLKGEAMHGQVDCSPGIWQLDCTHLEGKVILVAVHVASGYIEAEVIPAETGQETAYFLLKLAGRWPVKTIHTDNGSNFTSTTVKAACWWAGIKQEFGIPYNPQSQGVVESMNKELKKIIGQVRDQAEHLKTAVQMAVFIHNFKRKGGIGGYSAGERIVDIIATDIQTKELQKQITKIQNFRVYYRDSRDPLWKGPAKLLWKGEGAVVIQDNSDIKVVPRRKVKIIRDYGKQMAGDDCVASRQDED

[8] = target: Human immunodeficiency virus type 1 integrase (Human immunodeficiency virus 1) (UniProt Q7ZJM1); test: Inhibitory concentration against HIV-1 Integrase 3' chain transfer
Homo sapiens [9] = species: Homo sapiens; test: Cytotoxicitic activity […] in human PBLs cells; type: functional, cell-based

Structure (SMILES) | ID50 [1] | also measured
CCCC(=O)C1=C(O)C(Cc2c(O)c(C)c(O)c(C(=O)CCC)c2O)=C(O)C(C)(C)C1=O | 26 µM | 
CC1(C)CC[C@]2(C(=O)O)CC[C@]3(C)C(=CC[C@@H]4[C@@]5(C)C[C@H](O)[C@H](O)[C@@](C)(C(=O)O)[C@H]5CC[C@]43C)[C@@H]2C1 | 35 µM | 
CC(=O)OC1CCC2(C)C(C)C(C)CCC2(O)C1O (configuration not stated) | 16 µM | 
CCCCCCc1cc2c(cc1O)OC(=O)C(C(c1ccccc1)c1c(O)oc3cc(O)c(CCCCCC)cc3c1=O)C2O (configuration not stated) | 0.32 µM | 
CC(=O)NC(Cc1ccsc1)(C(=O)O)C(=O)O | 23 µM | 
O=c1c(C(c2ccc3c(c2)OCO3)c2c(O)oc3ccccc3c2=O)c(O)oc2ccccc12 | 30 µM | 
Cc1cn([C@H]2C[C@H](N=[N+]=[N-])[C@@H](COP(=O)(O)OP(=O)(O)OP(=O)(O)O)O2)c(=O)[nH]c1=O | 54 µM | 
O=c1c(C(c2ccc(C(c3c(O)oc4ccccc4c3=O)c3c(O)oc4ccccc4c3=O)cc2)c2c(O)oc3ccccc3c2=O)c(O)oc2ccccc12 | 1.7 µM | ID50 [2]: 7.1 µM; EC50 (Homo sapiens [3]): 11.5 µM; RFU [4]: inactive; ID50 [5]: 1.7 µM; ID50 [6]: inactive; ID50 [7]: 1.5 µM; ID50 [8]: 0.7 µM; IC50 (Homo sapiens [9]): 54.8 µM
C[C@]12CCC(=O)C=C1CC[C@@H]1[C@@H]2[C@@H](O)C[C@@]2(C)[C@H]1CC[C@]2(O)C(=O)COC(=O)CCC(=O)O | 27 µM | 

Second part, led by results:

ID50 [1] | Structure (SMILES) | also measured
13 µM | O=c1oc2c(-c3ccccc3)cccc2c(O)c1-c1ccccc1 | 
17 µM | CC(C)CC(NC(=O)OCc1ccccc1)(C(=O)O)C(=O)O | 
32 µM | O=C(Oc1ccccc1)N(CCO)C(c1ccccc1)C(O)c1ccccc1 (configuration not stated) | 
24 µM | O=C1C(O)=C(C(C2=C(O)C(=O)c3ccccc3C2=O)c2ccc(Cl)cc2Cl)C(=O)c2ccccc21 | 
42 µM | O=c1oc2ccccc2c(O)c1-c1ccccc1 | 
2 µM | O=C1C2=C(C(=O)c3ccccc31)C(O)(S(=O)(=O)O)C(O)(S(=O)(=O)O)C1N=CC=CC21 (configuration not stated) | 
31 µM | CC(C)c1cccc(C(C)C)c1NC(=O)C(=O)CC(=O)CC(c1ccccc1)c1c(O)oc2ccccc2c1=O (configuration not stated) | 
0.75 µM | O=C1C(O)=C(C(C2=C(O)C(=O)c3ccccc3C2=O)c2ccc(C(C3=C(O)C(=O)c4ccccc4C3=O)C3=C(O)C(=O)c4ccccc4C3=O)cc2)C(=O)c2ccccc21 | 
21 µM | O=C1Oc2ccccc2C(O)C1Sc1c(O)oc2ccccc2c1=O (configuration not stated) | 
6 µM | O=c1oc2cccc(O)c2c(O)c1Cc1ccccc1 | 
